One assay concerns the target Furin (Homo sapiens, UniProt P09958).
Assay [1] deals with T1, Proprotein convertase subtilisin/kexin type 6 (Homo sapiens, UniProt P29122).
T1 sequence (P29122 whole entry): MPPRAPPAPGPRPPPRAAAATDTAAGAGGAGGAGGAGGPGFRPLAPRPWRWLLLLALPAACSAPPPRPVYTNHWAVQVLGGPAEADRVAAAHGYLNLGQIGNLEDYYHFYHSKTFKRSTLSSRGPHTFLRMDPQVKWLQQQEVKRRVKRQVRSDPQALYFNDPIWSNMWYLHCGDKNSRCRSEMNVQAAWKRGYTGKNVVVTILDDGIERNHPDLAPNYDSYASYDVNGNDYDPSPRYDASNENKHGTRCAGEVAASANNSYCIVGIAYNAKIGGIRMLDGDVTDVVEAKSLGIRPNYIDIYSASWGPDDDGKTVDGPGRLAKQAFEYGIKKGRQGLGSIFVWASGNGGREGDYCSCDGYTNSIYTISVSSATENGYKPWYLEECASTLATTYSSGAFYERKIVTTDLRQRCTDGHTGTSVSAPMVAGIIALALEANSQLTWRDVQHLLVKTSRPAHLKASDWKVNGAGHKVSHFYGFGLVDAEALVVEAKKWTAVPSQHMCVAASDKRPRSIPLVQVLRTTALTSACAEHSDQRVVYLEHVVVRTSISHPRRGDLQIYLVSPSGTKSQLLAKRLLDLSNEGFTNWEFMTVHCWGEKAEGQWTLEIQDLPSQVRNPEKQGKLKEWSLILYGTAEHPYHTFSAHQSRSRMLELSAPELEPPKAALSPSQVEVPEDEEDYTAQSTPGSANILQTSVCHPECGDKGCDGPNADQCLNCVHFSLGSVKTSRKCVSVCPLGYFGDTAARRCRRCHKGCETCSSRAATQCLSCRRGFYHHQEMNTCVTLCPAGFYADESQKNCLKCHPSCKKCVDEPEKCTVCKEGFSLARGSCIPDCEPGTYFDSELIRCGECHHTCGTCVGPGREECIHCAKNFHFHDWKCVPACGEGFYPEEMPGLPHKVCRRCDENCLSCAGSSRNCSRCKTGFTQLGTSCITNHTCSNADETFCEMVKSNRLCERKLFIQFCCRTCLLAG
Description: Inhibition of human PACE4 expressed in Drosophila schneider 2 cells by fluorescence assay. It counts as cell-based.

The target of assay [2] is Proprotein convertase subtilisin/kexin type 5 (Homo sapiens, UniProt Q92824). Description: Inhibition of human PC5/6 expressed in Drosophila schneider 2 cells by fluorescence assay. It counts as cell-based.
For assay [3], the target named is T2, Proprotein convertase subtilisin/kexin type 7 (Homo sapiens, UniProt Q16549).
T2 sequence (Q16549 whole entry): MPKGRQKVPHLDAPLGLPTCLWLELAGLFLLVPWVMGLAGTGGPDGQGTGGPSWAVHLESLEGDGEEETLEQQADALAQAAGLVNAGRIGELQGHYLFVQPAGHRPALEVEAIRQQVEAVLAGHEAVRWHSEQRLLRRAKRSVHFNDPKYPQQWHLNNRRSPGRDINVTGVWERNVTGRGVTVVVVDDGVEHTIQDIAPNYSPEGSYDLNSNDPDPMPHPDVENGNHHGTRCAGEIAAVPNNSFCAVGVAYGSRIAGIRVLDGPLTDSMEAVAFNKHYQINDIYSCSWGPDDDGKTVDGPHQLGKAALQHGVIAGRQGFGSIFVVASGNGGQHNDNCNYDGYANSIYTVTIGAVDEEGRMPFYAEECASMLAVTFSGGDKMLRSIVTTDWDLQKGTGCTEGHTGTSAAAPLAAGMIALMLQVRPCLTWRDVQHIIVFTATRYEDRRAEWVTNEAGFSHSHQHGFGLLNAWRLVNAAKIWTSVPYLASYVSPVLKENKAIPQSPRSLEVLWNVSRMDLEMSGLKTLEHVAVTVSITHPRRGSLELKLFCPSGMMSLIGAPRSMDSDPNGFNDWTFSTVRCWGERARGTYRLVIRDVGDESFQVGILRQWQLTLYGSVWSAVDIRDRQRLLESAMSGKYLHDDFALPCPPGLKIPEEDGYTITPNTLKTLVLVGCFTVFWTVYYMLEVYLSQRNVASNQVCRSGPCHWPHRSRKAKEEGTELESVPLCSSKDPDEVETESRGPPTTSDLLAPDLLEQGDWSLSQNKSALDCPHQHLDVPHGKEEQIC
Description: Inhibition of human PC7 expressed in Drosophila schneider 2 cells by fluorescence assay. The format is cell-based.

Assay [4] concerns the target T3, Neuroendocrine convertase 1 (Homo sapiens, UniProt P29120).
T3 sequence (P29120 whole entry): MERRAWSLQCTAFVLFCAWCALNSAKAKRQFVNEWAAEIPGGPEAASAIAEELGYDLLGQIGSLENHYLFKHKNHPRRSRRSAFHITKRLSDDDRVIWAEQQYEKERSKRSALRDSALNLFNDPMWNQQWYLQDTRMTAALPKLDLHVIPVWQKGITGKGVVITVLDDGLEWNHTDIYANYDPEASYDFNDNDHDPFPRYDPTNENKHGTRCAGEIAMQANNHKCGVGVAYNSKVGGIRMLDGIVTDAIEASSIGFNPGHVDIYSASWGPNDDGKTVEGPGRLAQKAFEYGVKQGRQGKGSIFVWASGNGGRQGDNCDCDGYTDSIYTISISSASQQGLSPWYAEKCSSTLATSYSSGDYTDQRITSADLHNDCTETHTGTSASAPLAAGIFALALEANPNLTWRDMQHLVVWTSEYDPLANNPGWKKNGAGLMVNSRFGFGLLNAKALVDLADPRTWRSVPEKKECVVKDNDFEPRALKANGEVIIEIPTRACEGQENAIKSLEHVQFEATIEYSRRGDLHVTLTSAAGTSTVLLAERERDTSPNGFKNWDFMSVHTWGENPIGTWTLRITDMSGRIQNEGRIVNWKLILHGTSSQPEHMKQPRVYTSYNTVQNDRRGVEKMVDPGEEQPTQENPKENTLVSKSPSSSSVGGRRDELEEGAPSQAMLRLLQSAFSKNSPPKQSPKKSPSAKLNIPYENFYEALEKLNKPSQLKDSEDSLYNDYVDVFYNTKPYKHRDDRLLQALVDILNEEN
Description: Inhibition of human PC1/3 expressed in Drosophila schneider 2 cells by fluorescence assay. It counts as cell-based.

The target in assay [5] is T4, Neuroendocrine convertase 2 (Homo sapiens, UniProt P16519).
T4 sequence (P16519 whole entry): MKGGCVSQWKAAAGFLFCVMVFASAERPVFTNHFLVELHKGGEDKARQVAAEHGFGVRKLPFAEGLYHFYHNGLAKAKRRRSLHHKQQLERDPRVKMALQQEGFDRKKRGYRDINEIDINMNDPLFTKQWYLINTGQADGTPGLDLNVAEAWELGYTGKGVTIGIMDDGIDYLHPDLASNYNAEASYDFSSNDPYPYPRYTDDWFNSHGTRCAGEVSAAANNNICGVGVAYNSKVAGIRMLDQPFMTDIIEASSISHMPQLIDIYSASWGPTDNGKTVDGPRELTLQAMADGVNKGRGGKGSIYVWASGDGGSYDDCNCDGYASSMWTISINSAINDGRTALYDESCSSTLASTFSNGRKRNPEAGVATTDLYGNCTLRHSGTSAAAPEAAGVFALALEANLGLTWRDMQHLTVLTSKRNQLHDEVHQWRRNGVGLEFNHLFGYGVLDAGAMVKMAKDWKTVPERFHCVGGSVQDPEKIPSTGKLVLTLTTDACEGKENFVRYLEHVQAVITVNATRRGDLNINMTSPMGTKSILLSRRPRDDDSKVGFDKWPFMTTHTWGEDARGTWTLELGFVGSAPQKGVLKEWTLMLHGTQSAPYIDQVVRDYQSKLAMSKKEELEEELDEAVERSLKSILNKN
Description: Inhibition of human PC2 expressed in Drosophila schneider 2 cells by fluorescence assay. The format is cell-based.

The target of a further assay is Prothrombin (Homo sapiens, UniProt P00734). Description: Inhibition of thrombin.
A further assay addresses Coagulation factor X (Homo sapiens, UniProt P00742). Description: Inhibition of factor 10a.
The next assay addresses Plasminogen (Homo sapiens, UniProt P00747). Description: Inhibition of plasmin.
The nature of a further assay: cells. The format is cell-based. The conditions noted are these: Canis lupus familiaris, MDCK.

pIC50, pKi: −log10 of the molar value. Residues, ends and D or L forms follow the SMILES beside them. *: point of attachment. Agmatine = N=C(N)NCCCCN*; PhAc = O=C(Cc1ccccc1)* A value given as a limit tells only on which side of the number the result lay.

Chain of Furin (P09958 whole entry): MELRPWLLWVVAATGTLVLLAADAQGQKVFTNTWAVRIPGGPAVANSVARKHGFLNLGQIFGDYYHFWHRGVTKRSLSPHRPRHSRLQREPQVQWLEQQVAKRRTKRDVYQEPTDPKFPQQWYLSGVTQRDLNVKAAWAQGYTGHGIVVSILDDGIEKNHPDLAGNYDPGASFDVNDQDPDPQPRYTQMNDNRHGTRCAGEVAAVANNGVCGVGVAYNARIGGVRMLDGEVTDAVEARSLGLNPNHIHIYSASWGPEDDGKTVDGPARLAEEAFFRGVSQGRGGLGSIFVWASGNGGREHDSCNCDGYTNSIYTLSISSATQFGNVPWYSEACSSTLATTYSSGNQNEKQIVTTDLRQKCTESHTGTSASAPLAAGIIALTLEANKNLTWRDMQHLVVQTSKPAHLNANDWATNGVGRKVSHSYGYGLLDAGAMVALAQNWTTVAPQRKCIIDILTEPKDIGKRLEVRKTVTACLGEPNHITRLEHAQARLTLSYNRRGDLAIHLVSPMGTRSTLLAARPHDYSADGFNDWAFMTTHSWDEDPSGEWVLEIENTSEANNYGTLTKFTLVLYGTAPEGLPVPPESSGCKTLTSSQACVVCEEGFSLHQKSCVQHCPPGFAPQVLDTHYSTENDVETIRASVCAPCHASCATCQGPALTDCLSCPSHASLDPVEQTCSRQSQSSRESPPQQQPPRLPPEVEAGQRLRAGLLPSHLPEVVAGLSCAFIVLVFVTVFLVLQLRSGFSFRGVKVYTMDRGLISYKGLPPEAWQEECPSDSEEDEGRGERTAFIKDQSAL
Chain of Plasminogen (P00747 97-580 limits assumed): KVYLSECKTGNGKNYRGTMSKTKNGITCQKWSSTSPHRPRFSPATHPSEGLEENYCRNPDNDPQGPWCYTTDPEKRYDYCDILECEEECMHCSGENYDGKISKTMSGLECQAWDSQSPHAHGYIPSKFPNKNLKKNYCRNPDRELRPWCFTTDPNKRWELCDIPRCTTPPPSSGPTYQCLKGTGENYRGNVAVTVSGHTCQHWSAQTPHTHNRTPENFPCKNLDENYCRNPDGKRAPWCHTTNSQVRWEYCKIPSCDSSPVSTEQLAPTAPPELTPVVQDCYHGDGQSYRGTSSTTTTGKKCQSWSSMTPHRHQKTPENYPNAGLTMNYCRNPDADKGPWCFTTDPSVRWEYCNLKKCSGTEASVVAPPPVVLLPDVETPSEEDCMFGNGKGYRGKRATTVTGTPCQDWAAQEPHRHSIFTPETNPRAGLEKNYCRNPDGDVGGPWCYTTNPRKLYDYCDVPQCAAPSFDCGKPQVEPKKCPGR
Chain of Plasminogen (P00747 581-810 limits assumed): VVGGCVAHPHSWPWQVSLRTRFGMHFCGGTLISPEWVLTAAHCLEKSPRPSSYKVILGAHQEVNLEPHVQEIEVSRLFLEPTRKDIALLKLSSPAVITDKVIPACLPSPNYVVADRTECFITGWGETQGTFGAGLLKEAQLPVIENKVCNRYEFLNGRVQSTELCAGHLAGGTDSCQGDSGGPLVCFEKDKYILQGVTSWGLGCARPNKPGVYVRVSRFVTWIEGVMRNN
Chain of Proprotein convertase subtilisin/kexin type 5 (Q92824 whole entry): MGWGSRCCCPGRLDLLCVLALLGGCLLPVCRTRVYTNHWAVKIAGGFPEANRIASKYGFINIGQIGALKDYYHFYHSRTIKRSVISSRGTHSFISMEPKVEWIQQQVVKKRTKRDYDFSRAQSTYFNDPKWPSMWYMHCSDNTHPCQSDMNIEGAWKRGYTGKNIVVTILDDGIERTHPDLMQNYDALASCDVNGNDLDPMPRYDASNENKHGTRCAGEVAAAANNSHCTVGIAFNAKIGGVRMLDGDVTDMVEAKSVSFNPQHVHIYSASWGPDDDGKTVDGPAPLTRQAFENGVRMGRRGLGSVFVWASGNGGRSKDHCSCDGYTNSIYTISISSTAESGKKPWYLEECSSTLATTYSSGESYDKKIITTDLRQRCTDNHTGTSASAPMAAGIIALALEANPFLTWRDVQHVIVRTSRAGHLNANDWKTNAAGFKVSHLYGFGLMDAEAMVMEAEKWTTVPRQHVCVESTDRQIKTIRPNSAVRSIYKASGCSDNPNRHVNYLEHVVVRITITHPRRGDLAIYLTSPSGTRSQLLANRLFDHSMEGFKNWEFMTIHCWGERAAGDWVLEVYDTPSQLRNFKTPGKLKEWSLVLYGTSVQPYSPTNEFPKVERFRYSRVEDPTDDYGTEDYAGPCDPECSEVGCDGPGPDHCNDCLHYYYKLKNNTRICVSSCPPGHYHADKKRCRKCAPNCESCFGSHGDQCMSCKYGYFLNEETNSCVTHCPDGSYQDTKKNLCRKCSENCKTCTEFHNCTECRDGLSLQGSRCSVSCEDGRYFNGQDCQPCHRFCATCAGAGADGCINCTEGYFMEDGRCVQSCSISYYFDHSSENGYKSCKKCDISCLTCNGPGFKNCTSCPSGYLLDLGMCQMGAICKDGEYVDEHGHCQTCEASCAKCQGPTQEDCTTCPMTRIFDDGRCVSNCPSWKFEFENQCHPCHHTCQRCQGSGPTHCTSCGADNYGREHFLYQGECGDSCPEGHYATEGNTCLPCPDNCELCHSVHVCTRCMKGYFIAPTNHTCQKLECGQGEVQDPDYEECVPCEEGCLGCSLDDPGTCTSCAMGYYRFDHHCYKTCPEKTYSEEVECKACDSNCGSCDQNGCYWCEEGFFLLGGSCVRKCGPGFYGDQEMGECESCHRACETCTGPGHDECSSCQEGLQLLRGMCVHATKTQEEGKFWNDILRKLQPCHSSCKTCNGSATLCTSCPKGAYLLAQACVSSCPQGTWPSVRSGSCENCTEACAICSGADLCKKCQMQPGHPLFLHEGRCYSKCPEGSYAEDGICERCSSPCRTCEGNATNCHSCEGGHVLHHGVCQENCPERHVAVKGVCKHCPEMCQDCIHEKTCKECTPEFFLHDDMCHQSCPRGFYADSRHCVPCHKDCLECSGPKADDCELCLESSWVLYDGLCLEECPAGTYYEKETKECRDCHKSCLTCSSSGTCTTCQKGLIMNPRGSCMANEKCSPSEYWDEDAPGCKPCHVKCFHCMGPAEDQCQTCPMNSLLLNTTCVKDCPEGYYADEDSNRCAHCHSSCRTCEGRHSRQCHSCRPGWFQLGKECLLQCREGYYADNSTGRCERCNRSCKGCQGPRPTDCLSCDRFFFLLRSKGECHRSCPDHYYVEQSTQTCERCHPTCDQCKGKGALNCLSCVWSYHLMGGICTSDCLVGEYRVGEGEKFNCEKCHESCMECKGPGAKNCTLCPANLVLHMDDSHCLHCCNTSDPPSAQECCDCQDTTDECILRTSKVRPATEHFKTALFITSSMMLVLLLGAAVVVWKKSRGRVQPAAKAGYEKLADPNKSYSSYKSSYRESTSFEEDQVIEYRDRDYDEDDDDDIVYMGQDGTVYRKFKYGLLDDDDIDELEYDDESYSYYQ
Chain of Coagulation factor X (P00742 41-179 limits assumed): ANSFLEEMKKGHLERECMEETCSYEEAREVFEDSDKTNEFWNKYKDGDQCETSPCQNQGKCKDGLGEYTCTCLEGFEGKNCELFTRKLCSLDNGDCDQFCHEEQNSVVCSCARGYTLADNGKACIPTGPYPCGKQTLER
Chain of Coagulation factor X (P00742 235-488 limits assumed): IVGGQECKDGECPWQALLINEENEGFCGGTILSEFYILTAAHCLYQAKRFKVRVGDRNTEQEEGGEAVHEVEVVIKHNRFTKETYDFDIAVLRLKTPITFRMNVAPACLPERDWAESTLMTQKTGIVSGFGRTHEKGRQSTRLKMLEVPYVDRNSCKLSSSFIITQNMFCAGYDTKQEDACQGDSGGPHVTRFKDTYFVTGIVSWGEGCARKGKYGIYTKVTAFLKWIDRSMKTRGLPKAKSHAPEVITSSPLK

The term pKi denotes −log10 of the Ki, conventionally taken in molar units. A high value points to a small Ki. Molecule `CC(C)[C@H](NC(=O)[C@H](CCCN=C(N)N)NC(=O)Cc1ccccc1)C(=O)N[C@@H](CCCN=C(N)N)C(=O)NCCCN=C(N)N` gave a pKi at Furin of 7.20.
Turning to `CCCCCCCCCC(=O)N[C@@H](CCCN=C(N)N)C(=O)N[C@H](C(=O)N[C@@H](CCCN=C(N)N)C(=O)NCc1ccc(C(=N)N)cc1)C(C)C`, the pKi in assay [1] was 8.52; in assay [2], 8.20; in assay [3], 6.01; in [4], 8.44; in [5] it was 7.26; on Furin, 8.80.
`CC(C)[C@H](NC(=O)[C@H](CCCNC(=N)N)NC(=O)Cc1ccccc1)C(=O)N[C@@H](CCCNC(=N)N)C(=O)NCCCCNC(=N)N` (PhAc-Arg-Val-Arg-Agmatine): the pKi is 7.38 in assay [1]; 7.07 in assay [2]; below 5.00 in assay [3]; 7.28 in assay [4]; below 5.00 in [5]; 3.99 at Prothrombin. The pKi on Coagulation factor X is 4.08; on Plasminogen it was 4.01; at Furin it was 7.11.
Regarding `CC(C)[C@H](NC(=O)[C@H](CCCN=C(N)N)NC(=O)Cc1ccccc1)C(=O)N[C@@H](CCCN=C(N)N)C(=O)NCc1cccc(CN=C(N)N)c1`, the pKi at Furin is 5.56.
With `CC(C)[C@H](NC(=O)[C@H](CCCNC(=N)N)NC(=O)Cc1ccccc1)C(=O)N[C@@H](CCCNC(=N)N)C(=O)NCCCCCN`, the pKi at Furin was 6.26.
On Furin, `CC(C)[C@H](NC(=O)[C@H](CCCN=C(N)N)NC(=O)Cc1ccccc1)C(=O)N[C@@H](CCCN=C(N)N)C(=O)NCC1CCNCC1` had a pKi of 5.01.
On the same count and under the same terms, the same measure for `CC(C)[C@H](NC(=O)[C@H](CCCN=C(N)N)NC(=O)Cc1ccccc1)C(=O)N[C@@H](CCCN=C(N)N)C(=O)NCCCCN`: 5.13.
With `CC(=O)N[C@@H](CCCNC(=N)N)C(=O)N[C@H](C(=O)N[C@@H](CCCNC(=N)N)C(=O)NCc1ccc(C(=N)N)cc1)C(C)C`, the pKi in assay [1] is 8.62; in assay [2] it was 8.44; in assay [3], 5.29; in [4], 8.77; in assay [5] it was 5.86; at Furin, 9.00.
Molecule `CC(C)[C@H](NC(=O)[C@H](CCCN=C(N)N)NC(=O)Cc1ccccc1)C(=O)N[C@@H](CCCN=C(N)N)C(=O)NCc1cccc(CN)c1` gave a pKi at Furin of 5.88.
On the same count and under the same terms, the same measure for `CC(C)[C@H](NC(=O)[C@H](CCCNC(=N)N)NC(=O)Cc1ccccc1)C(=O)N[C@@H](CCCNC(=N)N)C(=O)NCc1ccc(CN)cc1`: 6.20; for `CC(C)[C@H](NC(=O)[C@H](CCCNC(=N)N)NC(=O)Cc1ccccc1)C(=O)N[C@@H](CCCNC(=N)N)C(=O)NCCCN`: 5.52.
On to `CC(C)[C@H](NC(=O)[C@H](CCCN=C(N)N)NC(=O)Cc1ccccc1)C(=O)N[C@@H](CCCN=C(N)N)C(=O)NCCCCCN=C(N)N`, for which the pKi on Furin was 5.97.
The pIC50 is −log10 of the IC50, conventionally taken in molar units. A lower pIC50 goes with a large IC50. Take `CC(C)[C@H](NC(=O)[C@H](CCCNC(=N)N)NC(=O)Cc1ccccc1)C(=O)N[C@@H](CCCNC(=N)N)C(=O)NCc1ccc(C(=N)N)cc1`: the negative-log Ki (pKi) in assay [1] was 9.22; in [2], 8.80; in [3] it was 5.21; in assay [4], 9.12; in [5] it was 6.51; on Prothrombin it was 4.64. Further, the pKi at Coagulation factor X is 4.40; on Plasminogen, 5.22. The pIC50 in “cells” was 5.00.
As for `CCCCCCCCCC(=O)N[C@@H](CCCN=C(N)N)C(=O)N[C@H](C(=O)N[C@@H](CCCCN)C(=O)NCc1ccc(C(=N)N)cc1)C(C)C`, the pKi on Furin was 8.48.
For `CC(C)[C@H](NC(=O)[C@H](CCCNC(=N)N)NC(=O)Cc1ccccc1)C(=O)N[C@@H](CCCNC(=N)N)C(=O)NCC1CCN(C(=N)N)CC1`, the pKi in [1] is 7.17; in assay [2], 6.76; in [3], below 5.00; in assay [4] it was 7.15; in assay [5] it was below 5.00; at Prothrombin, 4.30. The results for the pKi at Coagulation factor X, on Plasminogen and on Furin were 3.91, below 3.00 and 7.28, respectively.
In turn, `CC(C)[C@H](NC(=O)[C@H](CCCN=C(N)N)NC(=O)Cc1ccccc1)C(=O)N[C@@H](CCCN=C(N)N)C(=O)NCc1ccc(CN=C(N)N)cc1` gave a negative logarithm of the Ki (pKi) on Furin of 5.84.
